The text below walks through data of PubChem BioAssay (NCI).

Among the test systems are SK-MEL-5 melanoma; DLD-1 colon; RXF 393 renal; OVCAR-4 ovarian; HCT-15 colon; ACHN renal; SF-295 CNS; SK-MEL-2 melanoma; CCRF-CEM leukemia; MOLT-4 leukemia.
Common to all, as to assay: growth of human tumour cells (NCI), 48 h

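96-well plates; 48 h exposure; 5 concentrations. Endpoints by linear interpolation between flanking doses. Not reached: highest tested concentration assigned. Here, GI50 denotes the concentration required for 50% inhibition of growth. TGI: total growth inhibition.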

Take `CCOC(=O)C(=[N+]=[N-])[Si](C)(C)C`: the TGI with SK-MEL-5 melanoma, in the assay with DLD-1 colon, in the assay with RXF 393 renal, in the assay on OVCAR-4 ovarian, with HCT-15 colon and in the assay with ACHN renal was above 100 µM throughout. Further, the TGI with SF-295 CNS and with SK-MEL-2 melanoma was above 100 µM each time.
Turning to `COc1ccc(CC2NCCc3c2[nH]c2ccccc32)cc1` (configuration not stated), the TGI in the assay with CCRF-CEM leukemia, with SK-MEL-5 melanoma, in the assay with DLD-1 colon, with MOLT-4 leukemia, in the assay on OVCAR-4 ovarian and with HCT-15 colon was above 100 µM throughout. The TGI in the assay on ACHN renal, in the assay on SF-295 CNS and in the assay with SK-MEL-2 melanoma was above 100 µM each time.
As for `C1=CC(N(c2ccccc2)C2C=CCCC2)CCC1` (configuration not stated), the TGI with CCRF-CEM leukemia, in the assay with SK-MEL-5 melanoma, in the assay on DLD-1 colon, in the assay on RXF 393 renal, in the assay on HCT-15 colon and in the assay on ACHN renal was above 100 µM throughout. Moreover, the TGI in the assay on SF-295 CNS is above 100 µM.
On to `[N-]=[N+]=N[C@H]1C[C@@H](CO)O[C@H]1n1cnc2c(N)ncnc21`, for which the TGI with SK-MEL-5 melanoma, with DLD-1 colon, in the assay with OVCAR-4 ovarian, in the assay on ACHN renal, with SF-295 CNS and with SK-MEL-2 melanoma was above 100 µM in each case.
Regarding `OCC1OC(c2nc(C3=NCCCN3)cs2)C(O)C1O` (configuration not stated), the TGI in the assay on CCRF-CEM leukemia, with DLD-1 colon, in the assay with MOLT-4 leukemia, in the assay with OVCAR-4 ovarian, in the assay on HCT-15 colon and in the assay with ACHN renal was above 100 µM in each case. In addition, the TGI is above 10 µM with SF-295 CNS and above 100 µM with SK-MEL-2 melanoma.
`COC(=O)C(Cc1nc2ccc(Cl)cc2[nH]c1=O)/C(=N\N)C(=O)Nc1cc(C)c(Cl)cc1S(=O)(=O)O` (configuration not stated): the TGI in the assay with CCRF-CEM leukemia, in the assay with SK-MEL-5 melanoma, in the assay on DLD-1 colon, with MOLT-4 leukemia, in the assay with OVCAR-4 ovarian and in the assay with HCT-15 colon was above 100 µM in each case. Besides, the TGI in the assay on ACHN renal, with SF-295 CNS and with SK-MEL-2 melanoma was above 100 µM each time.
On to `CCC[CH2][Sn]([Cl])([CH2]CCC)[CH2]CCC`, for which the GI50 is 0.0288 µM in the assay on CCRF-CEM leukemia; 0.192 µM in the assay with SK-MEL-5 melanoma; 0.0853 µM in the assay on DLD-1 colon; 0.0522 µM in the assay on MOLT-4 leukemia; 0.0998 µM with OVCAR-4 ovarian; 0.1 µM with HCT-15 colon. In addition, the GI50 is 0.144 µM in the assay with ACHN renal, 0.12 µM with SF-295 CNS and 0.112 µM in the assay on SK-MEL-2 melanoma. In addition, the TGI with CCRF-CEM leukemia turned out to be 0.225 µM; with SK-MEL-5 melanoma, 0.808 µM; with DLD-1 colon it was 1.02 µM; in the assay with MOLT-4 leukemia, 0.632 µM; in the assay with OVCAR-4 ovarian it was 0.242 µM; with HCT-15 colon it was 0.242 µM. Moreover, the figures for the TGI in the assay on ACHN renal, in the assay with SF-295 CNS and in the assay on SK-MEL-2 melanoma were 0.276 µM, 0.245 µM and 0.24 µM, respectively.
On to `O=c1ccn([C@H]2CSC[C@@H](CO)C2)c(=O)[nH]1`, for which the TGI in the assay on CCRF-CEM leukemia, with SK-MEL-5 melanoma, in the assay on DLD-1 colon, in the assay on MOLT-4 leukemia, with OVCAR-4 ovarian and in the assay with HCT-15 colon was above 100 µM throughout. The TGI with ACHN renal and in the assay on SK-MEL-2 melanoma was above 100 µM each time.
Turning to `O=C(CCc1n[nH]c(=S)o1)Nc1ccccc1C(F)(F)F`, the TGI in the assay with CCRF-CEM leukemia was above 100 µM; in the assay on SK-MEL-5 melanoma it was above 100 µM; with DLD-1 colon, above 100 µM; in the assay on MOLT-4 leukemia, above 100 µM; with OVCAR-4 ovarian it was above 100 µM; in the assay with HCT-15 colon, 38.8 µM. Besides, the TGI in the assay on ACHN renal and in the assay with SF-295 CNS was above 100 µM each time.
As for `COC1(OC)C(N(C)C)=C(Cl)C(=O)/C1=C/C=O`, the TGI in the assay with CCRF-CEM leukemia was 98.2 µM; in the assay with SK-MEL-5 melanoma it was above 100 µM; in the assay on DLD-1 colon it was above 100 µM; with MOLT-4 leukemia, above 100 µM; with OVCAR-4 ovarian, above 100 µM; in the assay on HCT-15 colon, above 100 µM. Besides, the TGI in the assay on ACHN renal and in the assay with SF-295 CNS was above 100 µM in each case.
For the compound `CC1CN(C(=O)CN2CCC(CCCCN(C)C)CC2)c2ccccc2NC1=O` (configuration not stated), the TGI in the assay with CCRF-CEM leukemia, in the assay with SK-MEL-5 melanoma, in the assay with DLD-1 colon, in the assay with MOLT-4 leukemia, with OVCAR-4 ovarian and with HCT-15 colon was above 100 µM throughout. For the same compound, the TGI in the assay with ACHN renal and in the assay on SF-295 CNS was above 100 µM in each case.
Consider `O=C(Nc1nc(=S)c2c(ncn2CCOC(=O)c2ccccc2)[nH]1)c1ccccc1`, for which the TGI was above 100 µM in the assay on CCRF-CEM leukemia; above 100 µM in the assay on SK-MEL-5 melanoma; above 100 µM in the assay on DLD-1 colon; 59.2 µM with RXF 393 renal; 57.7 µM in the assay on OVCAR-4 ovarian; above 100 µM with HCT-15 colon. The TGI in the assay on ACHN renal, in the assay with SF-295 CNS and in the assay with SK-MEL-2 melanoma was above 100 µM in each case.
For `CC(C)Oc1ccc2cc(-c3nn(CC4CCNCC4)c4ncnc(N)c34)ccc2c1`, the GI50 in the assay on CCRF-CEM leukemia is 3.98 µM; in the assay on SK-MEL-5 melanoma it was 11.6 µM; in the assay with MOLT-4 leukemia, 1.97 µM; in the assay with RXF 393 renal it was 2.78 µM; in the assay with OVCAR-4 ovarian it was 5.24 µM; with HCT-15 colon, 3.74 µM. The GI50 with ACHN renal is 10.5 µM; with SF-295 CNS, 3.67 µM; in the assay on SK-MEL-2 melanoma, 10.8 µM. Moreover, the TGI was 16.9 µM with CCRF-CEM leukemia; 23.8 µM with SK-MEL-5 melanoma; 5.95 µM in the assay on MOLT-4 leukemia; 9.73 µM in the assay with RXF 393 renal; 19.5 µM with OVCAR-4 ovarian; 15.8 µM with HCT-15 colon. The TGI in the assay on ACHN renal amounted to 22.2 µM; in the assay on SF-295 CNS, 14.2 µM; in the assay on SK-MEL-2 melanoma it was 24.4 µM.
Turning to `CCCc1nc(NC#N)nc(C(=O)Nc2ccccc2)c1CC`, the TGI with SK-MEL-5 melanoma, in the assay with DLD-1 colon, in the assay with MOLT-4 leukemia, in the assay on RXF 393 renal, in the assay on HCT-15 colon and in the assay with ACHN renal was above 100 µM in each case. The TGI in the assay on SF-295 CNS and in the assay with SK-MEL-2 melanoma was above 100 µM each time.
